According to ChEMBL document CHEMBL5727501, “Bicyclic compounds and their use as antibacterial agents and β-lactamase inhibitors” (2020):

Legend:
[1] = (§1) Test for beta-lactamase Inhibitory Activity: he inhibitory activities of present compounds against various enzymes were measured by spectrophotometric assay using […] and using nitrocefin as a substrate [J. Antimicrob. Chemother., 28, pp 775-776 (1991)]. The concentration of inhibitor (IC50) which inhibits by 50% the reaction of hydrolysis of nitrocefin by the enzyme is determined.
[2] = as §1; remark: listed apart in the source

For `CC(=O)NNC(=O)[C@@H]1CC[C@@H]2CN1C(=O)N2OS(=O)(=O)O`, the IC50 [1] was 91 nM and the IC50 [2] was 8 nM.
